Our source for the cell death values is patent US12433876B2, “Septin inhibitors for treatment of cancers” (UNIVERSITY OF ROCHESTER, priority 2019, dated 2025).

This experiment deals with JIMT-1 cells. Briefly: Live/Dead dye flow cytometry, JIMT-1. The experiment is classed as cell-based. To be noted: JIMT-1, 3 μM, 48 hours, in vitro. Here is the method:
Cell Lines, Cell Culture, and Reagents. PANC-1, BXPC-3 and CAPAN-1, SKOV-3, MCF7, MDA-MD-231 cells were obtained from ATCC and maintained in DMEM, RPMI-1640 and IMDM supplemented with 10% fetal calf serum penicillin (100 units/mL), and streptomycin (100 μg/mL) at 37° C. with 5% CO2 in a humidified incubator. JIMT-1 cells were purchased from AddexBio Inc, USA (catalog number: C0006005) and maintained in 10% FBS and antibiotic supplemented DMEM. […] The reaction was monitored using thin-layer chromatography plates with DCM-MeOH or pure ethyl acetate as eluent. Spots were monitored in a UV chamber. […] ICM scores for each compound and their poses were calculated and compared with FCF. […] Cell viability of PANC-1, BXPC-3 and CAPAN-1 pancreatic cancer cells treated with UR214-9 was measured using the Cell Titre96R Aqueous One Solution Cell Proliferation Assay (Promega Corp., catalog number: G3580) following the procedure published earlier. […] The cells were analyzed by a 305 flow cytometer and relative live and dead cell population was calculated by inputting equal number of cells in both vehicle and control group.
Background: A flow cytometer gives signals particle by particle.

`O=C(Nc1cc(Cl)nc(Cl)c1)Nc1cccc(SC(F)(F)F)c1F` [UR214-9]: the cell death entry was “increased cell death”.
